The target of this assay is T1, KITENIN (Homo sapiens, UniProt Q8TAA9).
T1 construct: decreased endogenous KITENIN protein levels in non‐transfected HCT116 and CT‐26 cells; endogenous in cells; host or cells: HCT116
T1 sequence (Q8TAA9 1-524): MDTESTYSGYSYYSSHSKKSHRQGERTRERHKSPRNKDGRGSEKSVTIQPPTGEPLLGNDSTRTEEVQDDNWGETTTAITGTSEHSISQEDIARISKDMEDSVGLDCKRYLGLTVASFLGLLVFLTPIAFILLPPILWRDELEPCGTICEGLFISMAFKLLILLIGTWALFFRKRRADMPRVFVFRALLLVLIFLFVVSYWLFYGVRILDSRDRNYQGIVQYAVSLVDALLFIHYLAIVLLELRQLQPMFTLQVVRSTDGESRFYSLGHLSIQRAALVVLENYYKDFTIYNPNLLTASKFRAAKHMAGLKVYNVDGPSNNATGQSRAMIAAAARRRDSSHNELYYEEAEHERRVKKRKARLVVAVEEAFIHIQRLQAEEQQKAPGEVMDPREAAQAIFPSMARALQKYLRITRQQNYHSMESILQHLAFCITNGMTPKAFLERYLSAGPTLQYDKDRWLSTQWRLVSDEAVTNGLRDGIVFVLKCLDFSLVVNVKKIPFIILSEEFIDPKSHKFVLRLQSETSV
The experiment in a line: Endogenous KITENIN protein level in HCT116 cells (immunoblot). To be noted: non-transfected HCT116 cells, KDIP 1 μM, 12 h. It is filed as cell-based. The text has this: Antibodies against the following proteins were obtained from the indicated suppliers: Na^+/K^+ ATPase, GFP and tubulin (Santa Cruz Biotechnology); c‐Jun, p‐c‐Jun, ERK, p‐ERK, c‐MET, p‐c‐MET and GST (Cell Signaling Technology); V5, Myc (MBL); HA and β‐actin (Sigma); KITENIN (Atlas); His and RACK1, LC3, p62, Myo10, and eukaryotic elongation factor 2 (eEF2) (Abcam). They were used with appropriate secondary antibodies (Thermo). For transient transfection analyses, Caco2, HCT116 and 293T cells were transfected with various plasmids and harvested for immunoblot analysis 48 h after transfection. For most assays using stable cell lines, mixed polyclonal cells were used to exclude clonal variation. […]
FIGURE 2 KAI1 C‐terminal interacting tetraspanin (KITENIN) dimerization‐interfering peptide (KDIP) suppresses KITENIN‐induced enhanced cell invasion through the inhibition of the homodimerization of KITENIN. […] After 48 h of treatment, KITENIN transcripts in cells were analysed by the 2^−ΔΔ ^CT method using Q‐PCR. […] Caco2 cells were co‐transfected with KITENIN‐V5/Myc and treated with or without KDIP or scrambled peptide (scr) and were immunoprecipitated with anti‐V5 antibody and detected by indicated antibodies. Numerals indicated a quantification of the MYC bands normalized to the corresponding V5 bands (left panel). […] Numerals indicated a quantification of the bands observed (left panel). […]
Background: In western blotting, separated proteins are transferred to a membrane and probed.

Ends that are not written are not given here.

In the case of YARVRRRGPRRWRLVSDEAV [KDIP], the “endogenous KITENIN protein level (in words)” value was “decreased”.
